Data reported in patent US5576334A, “Acylurea derivatives” (Zeneca Limited, priority 1993, dated 1996).

Columns and labels:
[1] = target: T1, purified human platelet fibrinogen receptor (GPIIb/IIIa) (Homo sapiens, UniProt P05106+P08514); assay: test (b): GPIIb/IIIa ELISA, inhibition of biotinylated fibrinogen binding; details: biotinylated fibrinogen 10 nM, read-out: pIC50 (-log(IC50)), inhibition of biotinylated fibrinogen binding in test (b) (converted)
T1 construct: Glycoprotein IIb/IIIa is isolated from human platelet lysates; from tissue
T1 sequence (P08514 32-887 limits assumed): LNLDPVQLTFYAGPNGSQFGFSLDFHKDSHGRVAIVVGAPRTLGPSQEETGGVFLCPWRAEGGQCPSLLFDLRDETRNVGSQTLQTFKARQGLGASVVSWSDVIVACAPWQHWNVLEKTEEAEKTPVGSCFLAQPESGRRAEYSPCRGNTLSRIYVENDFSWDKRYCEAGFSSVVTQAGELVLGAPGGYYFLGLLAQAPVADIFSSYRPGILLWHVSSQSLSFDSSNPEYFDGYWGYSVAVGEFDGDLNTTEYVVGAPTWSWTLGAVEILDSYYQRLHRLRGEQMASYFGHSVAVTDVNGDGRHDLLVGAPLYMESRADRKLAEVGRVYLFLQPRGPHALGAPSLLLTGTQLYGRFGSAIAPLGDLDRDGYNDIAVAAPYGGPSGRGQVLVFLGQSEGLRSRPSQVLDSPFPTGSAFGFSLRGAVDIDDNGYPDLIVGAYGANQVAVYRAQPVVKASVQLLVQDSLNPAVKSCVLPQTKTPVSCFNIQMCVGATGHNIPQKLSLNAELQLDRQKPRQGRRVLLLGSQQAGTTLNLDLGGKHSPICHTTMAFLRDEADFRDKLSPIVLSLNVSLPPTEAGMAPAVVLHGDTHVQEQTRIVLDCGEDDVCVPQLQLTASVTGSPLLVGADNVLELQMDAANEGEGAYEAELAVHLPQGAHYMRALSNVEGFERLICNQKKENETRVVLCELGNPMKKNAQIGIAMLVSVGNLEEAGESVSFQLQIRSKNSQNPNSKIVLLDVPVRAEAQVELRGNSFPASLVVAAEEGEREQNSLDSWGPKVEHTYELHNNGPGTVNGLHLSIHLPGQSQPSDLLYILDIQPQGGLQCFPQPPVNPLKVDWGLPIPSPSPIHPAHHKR
T1 sequence (P08514 891-1039 limits assumed): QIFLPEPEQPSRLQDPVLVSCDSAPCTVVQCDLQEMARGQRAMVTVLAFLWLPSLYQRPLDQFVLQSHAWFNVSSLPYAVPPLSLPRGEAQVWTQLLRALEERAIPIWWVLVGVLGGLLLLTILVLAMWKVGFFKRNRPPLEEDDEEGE
T1 sequence (P05106 27-788): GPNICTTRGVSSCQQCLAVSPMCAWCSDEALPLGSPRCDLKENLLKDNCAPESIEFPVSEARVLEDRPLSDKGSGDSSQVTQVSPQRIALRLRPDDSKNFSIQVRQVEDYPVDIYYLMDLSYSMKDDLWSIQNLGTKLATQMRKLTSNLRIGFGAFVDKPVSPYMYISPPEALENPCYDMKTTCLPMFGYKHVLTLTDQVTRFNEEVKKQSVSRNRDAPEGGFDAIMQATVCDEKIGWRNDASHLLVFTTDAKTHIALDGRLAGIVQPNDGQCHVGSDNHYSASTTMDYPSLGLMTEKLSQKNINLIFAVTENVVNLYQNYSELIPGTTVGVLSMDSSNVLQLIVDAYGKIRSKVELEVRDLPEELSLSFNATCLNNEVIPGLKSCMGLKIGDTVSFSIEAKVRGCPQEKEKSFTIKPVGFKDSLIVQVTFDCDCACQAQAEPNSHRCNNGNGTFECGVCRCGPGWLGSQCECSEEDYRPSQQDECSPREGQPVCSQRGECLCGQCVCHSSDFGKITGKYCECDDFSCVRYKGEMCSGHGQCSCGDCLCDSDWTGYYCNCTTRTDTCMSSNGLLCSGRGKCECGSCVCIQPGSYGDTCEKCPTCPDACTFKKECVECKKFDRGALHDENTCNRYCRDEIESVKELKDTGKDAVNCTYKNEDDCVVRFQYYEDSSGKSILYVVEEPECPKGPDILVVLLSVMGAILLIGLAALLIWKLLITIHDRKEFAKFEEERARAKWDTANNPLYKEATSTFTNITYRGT
Description: (i) Preparation of human platelet lysates. Platelet rich plasma (PRP) is harvested by centrifugation (1000 rpm, 15 minutes) of whole blood anticoagulated with acid citrate dextrose (trisodium citrate 85 mM, citric acid 70 mM, d-glucose 110 mM) 1 part to 6 parts blood. Prostacyclin (PGI2, 1 μM) is added to the PRP before centrifugation (2400 rpm, 15 mins) and the resulting pellet is resuspended in modified Tyrodes' solution (NACl 130 mM, […], NaHCO3 12 mM, NaH2 PO4 0.5 mM, MgCl2 1 mM, […], Glucose 12 mM, HEPES 5 mM) containing bovine serum albumin 3.5 g/L, PGI2 1 μM and hirudin 0.5 U/ml. The platelet suspension is centrifuged (2400 rpm, 15 minutes) and the resultant pellet resuspended in 500 μl of lysis buffer (octyl glucoside 50 mM, HEPES 10 mM, NaCl 150 mM, CaCl2 1 mM, MgCl2 1 mM, PMSF 1 mM, NEM 10 mM, leupeptin 0.1 mM), agitated at 4° C. for 15 minutes then centrifuged at 24000 rpm, 15 minutes. The supernatant is stored at 4° C. and the pellet re-suspended in 500 μl of lysis buffer. […]
(iii) GPIIb/IIIa ELISA 96 well microtitre plates are coated with 100 μl purified human platelet fibrinogen receptor (GPIIb/IIIa) diluted in coating buffer (Tris-HCl 20 mM, NaCl 150 mM, CaCl2 1 mM, pH7.4) and left overnight at 4° C. […] Colour is allowed to develop for 10-15 minutes before optical densities are read at 650 nm. […]

[2] = tested on: ADP stimulated platelet aggregation in human, citrated, platelet-rich plasma; assay: test (a): inhibition of ADP-induced aggregation of human platelet-rich plasma (Born); assay type: cell-based; details: ADP as agonist
From the text: (i) aggregating human, citrated, platelet-rich plasma by addition of adenosine diphosphate (ADP) so as to generate a dose-response curve;
(ii) generating a dose-response curve for ADP stimulated platelet aggregation in the presence of increasing amounts of a test compound (generally in the range 10^-5 M to 10^-10 M); and
(iii) calculating a pA2 value indicating potency of platelet aggregation inhibition for the test compound, averaged over several concentrations, from the calculated 50% response value for ADP aggregation in the presence and absence of the test compound.

[3] = tested on: aggregation of human blood platelets; assay: test (a) modified, ex vivo after oral dosing to dogs; assay type: in vivo; details: 1 mg/kg
Description: Test (a) may be modified so as to assess the effects of a test compound ex vivo on the aggregation of human blood platelets after administration of the test compound to a laboratory animal, such as a rat, rabbit, guinea pig, mouse or dog. For example, groups of four male, fasted Alderley Park Wistar rats are orally dosed with a test compound or appropriate vehicle, and at suitable time intervals (1, 3, 5 and 8 hours after dosing) animals are anaesthetised with fluothane and bled by heart puncture. Blood is collected into 3.2% citrate (1 part to 9 parts whole blood) and platelet poor plasma (ppp) prepared by centrifugation (4500×g for 10 minutes). […]
Equal volumes (125 μl) of rat ppp and human prp are mixed together, ADP added, and the whole incubated (37° C.) and stirred (900 rpm) in a BioData platelet aggregometer. Aggregation is induced with ADP and agonist EC50 values calculated for human prp/rat ppp mixtures from animals dosed with test compound or vehicle. A mean concentration ratio (concentration of ADP required to cause a 50% aggregation response in human prp/rat ppp mixtures from animals dosed with antagonist, divided by the concentration of ADP to cause 50% aggregation in human prp/rat ppp mixtures from animals dosed with vehicle) is calculated at each time point.

| Structure (SMILES) | IC50 [1] [nM] | pA2, potency of platelet aggregation inhibition in test (a) [2] | duration of activity when dosed orally [3] |
| --- | --- | --- | --- |
| COC(=O)COc1ccc(NC(=O)NC(=O)c2ccc(C(=N)N)cc2)cc1 [Example 1, Methyl 4-[3-(4-amidinobenzoyl)ureido]phenoxyacetate] | 316 | 7.6 | – |
| CC(C)(C)OC(=O)COc1ccc(NC(=O)NC(=O)c2ccc(C(=N)N)cc2)cc1 [Example 2, t-Butyl 4-[3-(4-amidinobenzoyl)ureido]phenoxyacetate] | – | – | up to 8 hours |
| N=C(N)c1ccc(C(=O)NC(=O)Nc2ccc(OCC(=O)O)cc2)cc1 [Example 3, 4-[3-(4-Amidinobenzoyl)ureido]phenoxyacetic acid] | 2.51 | 8.4 | – |
